According to ChEMBL document CHEMBL1201862, “PubChem BioAssay data set” (2004):
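Grown in 96-well plates, cells were treated for 48 hours with each compound at five concentrations. Insufficient inhibition: endpoint recorded as highest concentration tested. GI50: concentration for 50% inhibition of growth.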 The source made the active and inactive calls. No stated cut-off is given here; in the data, active = GI50 up to about 1.1 µM and inactive = higher.

Columns and labels:
Assay in all cases: NCI anticancer screen, dose series, 48 h
HCT-116 = system: HCT-116
SF-295 = system: SF-295
OVCAR-8 = system: OVCAR-8
MDA-MB-231 = system: MDA-MB-231
MCF7 = system: MCF7
MDA-MB-435 = system: MDA-MB-435
CAKI-1 = system: CAKI-1
OVCAR-3 = system: OVCAR-3
OVCAR-4 = system: OVCAR-4
LOX IMVI = system: LOX IMVI
786-0 = system: 786-0
SF-539 = system: SF-539
HT-29 = system: HT-29
SNB-19 = system: SNB-19
K562 = system: K562
DU-145 = system: DU-145
HCT-15 = system: HCT-15
NCI/ADR-RES = system: NCI/ADR-RES
MOLT-4 = system: MOLT-4
RXF 393 = system: RXF 393

Measured: GI50

CC(C)(C)C1CCC2c3c([nH]c4ccccc34)C3C(=O)N(c4ccc5c(c4)C(=O)c4ccccc4C5=O)C(=O)C3C2C1 (stereo not given)
> 100 µM: HCT-15
inactive: HCT-116 > 100 µM | SF-295 > 100 µM | OVCAR-8 > 100 µM | MDA-MB-231 > 100 µM | MCF7 > 100 µM | MDA-MB-435 > 100 µM | CAKI-1 > 100 µM | OVCAR-3 > 100 µM | OVCAR-4 > 100 µM | LOX IMVI > 100 µM | 786-0 > 100 µM | SF-539 > 100 µM | HT-29 > 100 µM | SNB-19 > 100 µM | K562 > 100 µM | DU-145 > 100 µM | NCI/ADR-RES > 100 µM | MOLT-4 > 100 µM | RXF 393 > 100 µM

COC(=O)C1=C(C(=O)Nc2cccnc2Cl)N(c2ccc(OC)cc2[N+](=O)[O-])C(c2ccc(C)cc2)=CC1c1ccc(OC)cc1OC (stereo not given)
inactive: HCT-116 9.98 µM | SF-295 23.2 µM | OVCAR-8 8.79 µM | MDA-MB-231 17.9 µM | MCF7 2.15 µM | MDA-MB-435 5.64 µM | CAKI-1 36.9 µM | OVCAR-3 8.57 µM | OVCAR-4 33.6 µM | LOX IMVI 2.82 µM | 786-0 12 µM | SF-539 4.76 µM | HT-29 3.89 µM | SNB-19 32.1 µM | K562 4.67 µM | DU-145 23 µM | NCI/ADR-RES 17.6 µM | MOLT-4 7.94 µM | RXF 393 3.13 µM
4.27 µM: HCT-15

Cc1nnc2sc(-c3ccc(-c4ccccc4Cl)o3)nn12
inactive: HCT-116 19.8 µM | SF-295 32.1 µM | OVCAR-8 19.8 µM | MDA-MB-231 53.2 µM | MCF7 29.1 µM | MDA-MB-435 18.9 µM | CAKI-1 56 µM | OVCAR-3 27 µM | OVCAR-4 31.8 µM | LOX IMVI 20.9 µM | 786-0 26.9 µM | SF-539 19.7 µM | HT-29 34.4 µM | SNB-19 40.5 µM | K562 21.2 µM | DU-145 36.6 µM | NCI/ADR-RES 21.9 µM | MOLT-4 19 µM | RXF 393 33.8 µM
24.9 µM: HCT-15

O=c1[nH]c2nccn2c(Cl)c1Br
inactive: HCT-116 32.5 µM | SF-295 > 100 µM | OVCAR-8 19.2 µM | MDA-MB-231 17.5 µM | MCF7 42.6 µM | MDA-MB-435 19.8 µM | CAKI-1 22.4 µM | OVCAR-3 19.8 µM | OVCAR-4 18 µM | LOX IMVI 18 µM | 786-0 86.9 µM | SF-539 > 100 µM | HT-29 23.3 µM | SNB-19 27.7 µM | K562 19.6 µM | DU-145 83.8 µM | NCI/ADR-RES 22.9 µM | MOLT-4 20.2 µM | RXF 393 1.94 µM
16.6 µM: HCT-15

C/C(=C\CO)CC/C=C(\C)CNc1c(F)c(F)c(F)c(F)c1F
inactive: HCT-116 50.8 µM | SF-295 22.4 µM | OVCAR-8 19.8 µM | MDA-MB-231 19 µM | MCF7 29.2 µM | MDA-MB-435 22.9 µM | CAKI-1 33.3 µM | OVCAR-3 20.2 µM | OVCAR-4 44.5 µM | LOX IMVI 29.2 µM | 786-0 44.1 µM | SF-539 20.8 µM | HT-29 24 µM | SNB-19 27.7 µM | K562 33 µM | DU-145 43.6 µM | NCI/ADR-RES 30.8 µM | MOLT-4 29.6 µM | RXF 393 24.8 µM
30.2 µM: HCT-15

COc1ccc2c(c1)CCN1CCCc3ccc(OC)cc3C21 (stereo not given)
54.8 µM: HCT-15
inactive: HCT-116 31.3 µM | SF-295 24.6 µM | OVCAR-8 > 100 µM | MDA-MB-231 49.8 µM | MCF7 31.3 µM | MDA-MB-435 36.4 µM | CAKI-1 41.8 µM | OVCAR-3 92 µM | OVCAR-4 > 100 µM | LOX IMVI 41.2 µM | 786-0 49.1 µM | SF-539 50.4 µM | HT-29 31.7 µM | SNB-19 > 100 µM | K562 36 µM | DU-145 > 100 µM | NCI/ADR-RES 42.9 µM | MOLT-4 37.1 µM | RXF 393 41.4 µM
